From US12540117B2, “Aniline compound used as RORγ regulator” (SHANGHAI LITEDD CO., LTD., priority 2020, dated 2026)

How the values were obtained:
RORγt = molecular target: T1, RORγt (Homo sapiens, UniProt P51449); assay: In vitro luciferase reporter assay of RORγt inhibition (GAL4-RORγ-LBD in HEK293T); conditions: for Emax: HEK-293T; for Emax / Emax %: relative maximum inhibition rate relative to AZD-0284 at 10 μM; for IC50: IC50, RORγt luciferase reporter gene, HEK293T
T1 sequence (P51449 269-508 limits assumed): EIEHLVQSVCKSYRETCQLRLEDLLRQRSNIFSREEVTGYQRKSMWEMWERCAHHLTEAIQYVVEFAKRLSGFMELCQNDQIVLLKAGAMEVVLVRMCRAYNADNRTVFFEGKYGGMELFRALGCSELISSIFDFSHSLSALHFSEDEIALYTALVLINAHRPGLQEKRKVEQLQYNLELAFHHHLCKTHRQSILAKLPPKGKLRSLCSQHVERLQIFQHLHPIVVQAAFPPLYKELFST
Excerpt: The RORγ-LBD coding sequence was inserted into pBIND plasmid (Promega, E1581). The expression vector and a reporter vector (pGL4.35 carrying a stably integrated luciferase reporter gene driven by GAL4 promoter) were co-expressed in HEK293T host cells. When the inhibitor binds to the corresponding chimeric receptor, the chimeric receptor binds to the GAL4 binding site on the reporter gene carrier and inhibits reporter gene expression. The inhibition activity of the compounds on RORγ was determined according to the intensity of the chemiluminescence signal.
2.2 Cell Transfection • a) Balancing the Trans-IT transfection reagent at room temperature; • b) Adding 20 μl of the transfection reagent and 600 μl of Opti-MEM™ medium without contacting the tube wall, mixing uniformly through blowing and pipetting by a pipette gun, and allowing to stand at room temperature for 5 minutes; • c) Adding 10 μg of the plasmid to the transfection reagent (see Step 2.2.b), and allowing to stand at room temperature for 20 minutes; • Plasmids: 5 μg of pBIND-RORγ and 5 μg of pGL4.35 plasmids were respectively added therein; • d) Adding the mixed DNA transfection reagent to a 100 mm cell culture dish (see Step 2.1); • e) Placing the dish in an incubator at 37° C. and 5% CO2 for 5 h. […] Calculation of % Inhibition
[formula] • RLUcmpd: fluorescence value of test compounds • RLUpositive: average value of positive control • RLUvehicle: average value of negative control
IC50s of the compounds were calculated by fitting the % Inhibition and the logarithm values of the compound concentration using Graphad 8.0.

[1] = Metabolic stability in human liver microsomes; format: in vitro ADME
Excerpt: (§1) According to standard methods for investigating in vitro metabolic stability in the art, e.g., the methods described in Kerns, Edward H. and Di Li (2008). Drug-like Properties: Concepts, Structure Design and Methods: from ADME to Toxicity Optimisation. San Diego: Academic Press; Di, Li et al., Optimisation of a Higher Throughput Microsomal Stability Screening Assay for Profiling Drug Discovery Candidates, J. Biomol. Screen. 2003, 8(4), 453, the liver microsomal metabolic stability test of the compounds of the present disclosure was carried out analogously as follows. The incubation system comprising 0.5 mg protein/mL microsomes, cofactors, and PBS, was pre-incubated at 37° C. for 3 min, and then added the substrate (i.e., the test compounds) to initiate the reaction. Samples were taken at 0, 1, 5, 10, 15, 20, 30 and 60 min from the start of the reaction, and an appropriate terminator was added to terminate the reaction. Sample treatment (n=3): appropriate samples were added respectively, vortexed and centrifuged at high speed. The supernatants were collected and detected for the substrate by HPLC-MS/MS. The peak area at the 0 mm was taken as 100%. The peak areas at other time points were converted to percentages of remaining. The natural logarithms of the percentages of remaining at each time point was plotted against the incubation time, and the slope (−k) was calculated by linear regression. Then, Clint (μL/min/mg) and half-life (T½, min.) of the compounds were calculated following the equation: Inherent clearance rate (Clint)=(k*Volume of incubation solution)/Mass of liver microsomes.

[2] = Pharmacokinetic (PK) assay in mice; format: in vivo, C57BL/6 mice; conditions: for AUC(0-t) / Cmax / half-life / Vd / bioavailability: C57BL/6, mouse, plasma; for Vd: read-out: Vss; for bioavailability: Po 5 mg/kg vs IV 1 mg/kg
Protocol: The PK of each compound was determined as follows: 6 C57BL/6 mice (obtained from Shanghai Lingchang Biotechnology Co., Ltd.) were divided into two groups with 3 in each group. One group was administered intravenously at a dose of 1 mg/kg in the vehicle of 5% DMSO/95% (20% Captisol); the other group was administered by oral gavage at a dose of 5 mg/kg in the vehicle of 0.5% CMC-Na/0.5% Tween 80. Blood samples were collected from saphenous vein of lower leg in each group at 0, 0.083, 0.25, 0.5, 1, 2, 4, 6, 8 and 24 h after administration. Approximately 40 μL of the blood samples were collected into anticoagulant tubes containing EDTA-K2 Immediately after collection, the tubes were inverted at least 5 times to ensure uniform mixing, and then placed on ice. The blood samples collected at each time point were centrifuged at 4° C., 8000 rpm for 5 minutes to obtain plasma. Another 1.5 mL centrifuge tube was marked with the compound name, animal number, and time point, and the plasma was transferred to this tube. The plasma was stored at −80° C. until analysis.
Compound concentrations in the plasma were determined by UPLC-MS/MS method, and the pharmacokinetic parameters were calculated from the obtained data by Phoenix WinNolin 6.4 pharmacokinetic software.

[3] = Metabolic stability in mouse liver microsomes; format: in vitro ADME, CD-1 mice
Excerpt: as §1

| Compound | Emax (RORγt) [%] | IC50 (RORγt) [nM] | other results |
| --- | --- | --- | --- |
| CC(=O)N1CCc2cc(S(C)(=O)=O)ccc2C1C(=O)Nc1ccc(C(O)(C(F)(F)F)C(F)(F)F)cc1F (stereo not shown) [Example 11, 2-Acetyl-N-(2-fluoro-4-(1,1,1,3,3,3-hexafluoro-2-hydroxypropan-2-yl)phenyl)-6-(methylsulfonyl)-1,2,3,4-tetrahydroisoquinoline-1-carboxamide] | 104 | 91.3 |  |
| CCS(=O)(=O)c1ccc2c(c1)CCN(C(=O)CCC(=O)O)C2C(=O)Nc1ccc(C(O)(C(F)(F)F)C(F)(F)F)cc1 (stereo not shown) [Example 4, 4-(6-(Ethylsulfonyl)-1-((4-(1,1,1,3,3,3-hexafluoro-2-hydroxypropan-2-yl)phenyl)carbamoyl)-3,4-dihydroisoquinolin-2(1H)-yl)-4-oxobutanoic acid] | 73.8 | 3050 |  |
| CCS(=O)(=O)c1ccc2c(c1)CCN(C(C)=O)C2C(=O)Nc1ccc(C(F)(C(F)(F)F)C(F)(F)F)cc1 (single isomer, unassigned) [Example 8, (R)-2-acetyl-6-(ethylsulfonyl)-N-(4-(perfluoropropan-2-yl)phenyl)-1,2,3,4-tetrahydroisoquinoline-1-carboxamide or (S)-2-acetyl-6-(ethylsulfonyl)-N-(4-(perfluoropropan-2-yl)phenyl)-1,2,3,4-tetrahydroisoquinoline-1-carboxamide] | 99.2 | 3.78 |  |
| CC(=O)N1CCc2cc(S(C)(=O)=O)ccc2C1C(=O)Nc1ccc(C(O)(C(F)(F)F)C(F)(F)F)cc1 (stereo not shown) [Example 5, 2-Acetyl-N-(4-(1,1,1,3,3,3-hexafluoro-2-hydroxypropan-2-yl)phenyl)-6-(methylsulfonyl)-1,2,3,4-tetrahydroisoquinoline-1-carboxamide] |  |  | half-life ([1]; 0.5 mg protein/mL): > 2.42 h; Remaining % (T = 60 min) ([1]; T = 60 min): 85.0%; microsomal CLint ([1]; read-out: CLint(mic)): < 9.6 µL/min/mg; AUC(0-t) ([2]; IV, 1 mg/kg): 1190 ng·h/mL; Cmax ([2]; IV, 1 mg/kg): 1890 ng/mL; half-life ([2]; IV, 1 mg/kg): 4.89 h; Vd ([2]; IV, 1 mg/kg): 3.34 L/kg; bioavailability [2]: 213%; AUC(0-t) ([2]; Po, 5 mg/kg): 12600 ng·h/mL; Cmax ([2]; Po, 5 mg/kg): 1370 ng/mL; half-life ([2]; Po, 5 mg/kg): 4.33 h; CL_obs ([2]; IV, 1 mg/kg): 13.8 mL/min/kg; half-life ([3]; CD-1, 0.5 mg protein/mL): > 2.42 h; microsomal CLint ([3]; CD-1, read-out: CLint(mic)): < 9.6 µL/min/mg; Remaining % (T = 60 min) ([3]; T = 60 min): 86.6% |
| CCS(=O)(=O)c1ccc2c(c1)CCN(C(C)=O)C2C(=O)Nc1ccc(C(F)(C(F)(F)F)C(F)(F)F)cc1 (single isomer, unassigned) [Example 9, (S)-2-acetyl-6-(ethylsulfonyl)-N-(4-(perfluoropropan-2-yl)phenyl)-1,2,3,4-tetrahydroisoquinoline-1-carboxamide or (R)-2-acetyl-6-(ethylsulfonyl)-N-(4-(perfluoropropan-2-yl)phenyl)-1,2,3,4-tetrahydroisoquinoline-1-carboxamide] |  | 616 | Emax % (RORγt): 107.1% |
| CCS(=O)(=O)c1ccc2c(c1)CCN(C(C)=O)C2C(=O)Nc1ccc(C(O)(C(F)(F)F)C(F)(F)F)cc1 (single isomer, unassigned) [Example 3, (S)-2-acetyl-6-(ethylsulfonyl)-N-(4-(1,1,1,3,3,3-hexafluoro-2-hydroxypropan-2-yl)phenyl)-1,2,3,4-tetrahydroisoquinoline-1-carboxamide or (R)-2-acetyl-6-(ethylsulfonyl)-N-(4-(1,1,1,3,3,3-hexafluoro-2-hydroxypropan-2-yl)phenyl)-1,2,3,4-tetrahydrosoquinoline-1-carboxamide] |  | 681 | Emax % (RORγt): 111.3% |
| CC(=O)N1Cc2cc(S(C)(=O)=O)ccc2[C@@H]1C(=O)Nc1ccc(C(O)(C(F)(F)F)C(F)(F)F)cc1 [AZD-0284, reference compound] |  |  | AUC(0-t) ([2]; IV, 1 mg/kg): 1180 ng·h/mL; Cmax ([2]; IV, 1 mg/kg): 2480 ng/mL; half-life ([2]; IV, 1 mg/kg): 7.75 h; Vd ([2]; IV, 1 mg/kg): 6.29 L/kg; bioavailability [2]: 38%; AUC(0-t) ([2]; Po, 5 mg/kg): 2780 ng·h/mL; Cmax ([2]; Po, 5 mg/kg): 264 ng/mL; half-life ([2]; Po, 5 mg/kg): 3.35 h; CL_obs ([2]; IV, 1 mg/kg): 12.6 mL/min/kg |
| CCS(=O)(=O)c1ccc2c(c1)CCN(C(C)=O)C2C(=O)Nc1ccc(C(O)(C(F)(F)F)C(F)(F)F)cc1F (stereo not shown) [Example 10, 2-Acetyl-6-(ethylsulfonyl)-N-(2-fluoro-4-(1,1,1,3,3,3-hexafluoro-2-hydroxypropan-2-yl)phenyl)-1,2,3,4-tetrahydroisoquinoline-1-carboxamide] | 102 | 40.5 |  |

Now from value to molecule, other results behind:

| Emax (RORγt) [%] | IC50 (RORγt) [nM] | Compound | other results |
| --- | --- | --- | --- |
| 102 | 12.5 | CC(=O)N1CCc2cc(S(=O)(=O)CC3CC3)ccc2C1C(=O)Nc1ccc(C(O)(C(F)(F)F)C(F)(F)F)cc1 (stereo not shown) [Example 21, 2-Acetyl-6-((cyclopropylmethyl)sulfonyl)-N-(4-(1,1,1,3,3,3-hexafluoro-2-hydroxypropan-2-yl)phenyl)-1,2,3,4-tetrahydroisoquinoline-1-carboxamide] |  |
| 101 | 14.7 | CCS(=O)(=O)c1ccc2c(c1)CCN(C=O)C2C(=O)Nc1ccc(C(O)(C(F)(F)F)C(F)(F)F)cc1 (stereo not shown) [Example 19, 6-(Ethylsulfonyl)-2-formyl-N-(4-(1,1,1,3,3,3-hexafluoro-2-hydroxypropan-2-yl)phenyl)-1,2,3,4-tetrahydroisoquinoline-1-carboxamide] |  |
| 95.7 | 290 | CCS(=O)(=O)c1ccc2c(c1)CCN(C(C)=O)C2C(=O)Nc1ccc(OC(F)(F)F)cc1 (stereo not shown) [Example 12, 2-Acetyl-6-(ethylsulfonyl)-N-(4-(trifluoromethoxy)phenyl)-1,2,3,4-tetrahydroisoquinoline-1-carboxamide] |  |
| 102 | 17.8 | CNS(=O)(=O)c1ccc2c(c1)CCN(C(C)=O)C2C(=O)Nc1ccc(C(O)(C(F)(F)F)C(F)(F)F)cc1 (stereo not shown) [Example 22, 2-Acetyl-N-(4-(1,1,1,3,3,3-hexafluoro-2-hydroxypropan-2-yl)phenyl)-6-(N-methylsulfamoyl)-1,2,3,4-tetrahydroisoquinoline-1-carboxamide] |  |
| 98.8 | 83.4 | CCS(=O)(=O)c1ccc2c(c1)CCN(C(=O)C1CC1)C2C(=O)Nc1ccc(C(O)(C(F)(F)F)C(F)(F)F)cc1 (stereo not shown) [Example 14, 2-(Cyclopropanecarbonyl)-6-(ethylsulfonyl)-N-(4-(1,1,1,3,3,3-hexafluoro-2-hydroxypropan-2-yl)phenyl)-1,2,3,4-tetrahydroisoquinoline-1-carboxamide] |  |
| 95.8 | 107 | CCS(=O)(=O)c1ccc2c(c1)CCN(C(C)=O)C2C(=O)Nc1cc(Cl)c(C2=CCOCC2)c(Cl)c1 (stereo not shown) [Example 18, 2-Acetyl-N-(3,5-dichloro-4-(3,6-dihydro-2H-pyran-4-yl)phenyl)-6-(ethylsulfonyl)-1,2,3,4-tetrahydroisoquinoline-1-carboxamide] |  |
| 101 | 154 | CCC(=O)N1CCc2cc(S(=O)(=O)CC)ccc2C1C(=O)Nc1ccc(C(O)(C(F)(F)F)C(F)(F)F)cc1 (stereo not shown) [Example 13, 6-(Ethylsulfonyl)-N-(4-(1,1,1,3,3,3-hexafluoro-2-hydroxypropan-2-yl)phenyl)-2-propionyl-1,2,3,4-tetrahydroisoquinoline-1-carboxamide] |  |
| 95.9 | 67.1 | CC(=O)N1CCc2cc(S(C)(=O)=O)ccc2C1C(=O)Nc1cc(Cl)c(C2=CCOCC2)c(Cl)c1 (stereo not shown) [Example 17, 2-Acetyl-N-(3,5-dichloro-4-(3,6-dihydro-2H-pyran-4-yl)phenyl)-6-(methylsulfonyl)-1,2,3,4-tetrahydroisoquinoline-1-carboxamide] |  |
